24 molecules from patent US8268840B2, “Pyrimidinyl pyridone inhibitors of kinases” (Roche Palo Alto LLC, priority 2008, dated 2012) can be followed below.

Molecule `CC(=O)N1CCC(Nc2ncc3c(N)cc(=O)n([C@@H]4CC[C@@H](O)C4)c3n2)CC1` (racemic) [Compound I-37, 2-(1-Acetyl-piperidin-4-ylamino)-5-amino-8-((1R,3R)-3-hydroxy-cyclopentyl)-8H-pyrido[2,3-d]pyrimidin-7-one] displayed a melting point of 192 to 194 °C.

On to `Cc1c(N)c2cnc(N[C@@H]3CCCC[C@@H]3C)nc2n(C2CCC2)c1=O` (racemic) [Compound I-58, 5-Amino-8-cyclobutyl-6-methyl-2-((1R,2S)-2-methyl-cyclohexylamino)-8H-pyrido[2,3-d]pyrimidin-7-one], for which the melting point was in the range of 160 to 161 °C.

`Cc1c(N)c2cnc(N[C@H]3CCCC[C@@H]3C)nc2n(C2CCC2)c1=O` (racemic) [Compound I-60, 5-Amino-8-cyclobutyl-6-methyl-2-((1S,2S)-2-methyl-cyclohexylamino)-8H-pyrido[2,3-d]pyrimidin-7-one]: the melting point was 209 to 210 °C.

The molecule `COC(=O)N[C@H]1CC[C@H](Nc2ncc3c(N)cc(=O)n(C4CCC4)c3n2)CC1` [Compound I-2, [4-(5-Amino-8-cyclobutyl-7-oxo-7,8-dihydro-pyrido[2,3-d]pyrimidin-2-ylamino)-cyclohexyl]-carbamic acid methyl ester] showed a melting point of 154.3 to 156 °C.

Regarding `Nc1c(F)c(=O)n(C2CCC2)c2nc(NC3CCCCC3)ncc12` [Compound I-4, 5-Amino-8-cyclobutyl-2-cyclohexylamino-6-fluoro-8H-pyrido[2,3-d]pyrimidin-7-one], the melting point lay in the range of 286 to 287 °C.

For `Nc1cc(=O)n(C2CCCCC2)c2nc(N[C@H]3CC[C@H](O)CC3)ncc12` [Compound I-6, 5-Amino-8-cyclohexyl-2-(4-hydroxy-cyclohexylamino)-8H-pyrido[2,3-d]pyrimidin-7-one], the melting point lay in the range of 292 to 294 °C.

For `Nc1cc(=O)n(CCCO)c2nc(NC3CCCCC3)ncc12` [Compound I-8, 5-Amino-2-cyclohexylamino-8-(3-hydroxy-propyl)-8H-pyrido[2,3-d]pyrimidin-7-one], the melting point was 131 to 132.5 °C.

Consider `Cc1c(N)c2cnc(N[C@H]3CC[C@H](C(=O)N4CCOCC4)CC3)nc2n(C2CCCC2)c1=O` [Compound I-10, 5-Amino-8-cyclopentyl-6-methyl-2-[4-(morpholine-4-carbonyl)-cyclohexylamino]-8H-pyrido[2,3-d]pyrimidin-7-one], for which the melting point is 186.8 to 188 °C.

Regarding `CC(=O)N[C@H]1CC[C@H](Nc2ncc3c(N)cc(=O)n(C4CCCC4)c3n2)CC1` [Compound I-11, N-[4-(5-Amino-8-cyclopentyl-7-oxo-7,8-dihydro-pyrido[2,3-d]pyrimidin-2-ylamino)-cyclohexyl]-acetamide], the melting point lay within 172.6 to 176.6 °C.

For `Nc1cc(=O)n(CC2CC2)c2nc(NC3CCCCC3)ncc12` [Compound I-12, 5-Amino-2-cyclohexylamino-8-cyclopropylmethyl-8H-pyrido[2,3-d]pyrimidin-7-one], the melting point lay within 133 to 135 °C.

Turning to `Nc1cc(=O)n(C2CCCC2)c2nc(N[C@H]3CC[C@H](C(=O)N4CCOCC4)CC3)ncc12` [Compound I-13, 5-Amino-8-cyclopentyl-2-[4-(morpholine-4-carbonyl)-cyclohexylamino]-8H-pyrido[2,3-d]pyrimidin-7-one], the melting point was 292.5 to 295.3 °C.

As for `CS(=O)(=O)N[C@H]1CC[C@H](Nc2ncc3c(N)cc(=O)n(C4CCCCC4)c3n2)CC1` [Compound I-14, N-[4-(5-Amino-8-cyclohexyl-7-oxo-7,8-dihydro-pyrido[2,3-d]pyrimidin-2-ylamino)-cyclohexyl]-methanesulfonamide], the melting point is greater than 300 °C.

As for `Cc1c(N)c2cnc(N[C@H]3CC[C@H](C(=O)N4CCC(O)CC4)CC3)nc2n(C2CCC2)c1=O` [Compound I-15, 5-Amino-8-cyclobutyl-2-[4-(4-hydroxy-piperidine-1-carbonyl)-cyclohexylamino]-6-methyl-8H-pyrido[2,3-d]pyrimidin-7-one], the melting point lay in the range of 191.5 to 193 °C.

Regarding `Nc1c(-c2ccccc2Cl)c(=O)n(C2CCC2)c2nc(NC3CCCCC3)ncc12` [Compound I-16, 5-Amino-6-(2-chloro-phenyl)-8-cyclobutyl-2-cyclohexylamino-8H-pyrido[2,3-d]pyrimidin-7-one], the melting point lay within 175 to 176 °C.

For the molecule `Nc1cc(=O)n(C2CCCC2)c2nc(NC3CCCCC3)ncc12` [Compound I-17, 5-Amino-2-cyclohexylamino-8-cyclopentyl-8H-pyrido[2,3-d]pyrimidin-7-one], the melting point fell in the range of 125 to 130 °C.

As to `CC(=O)N[C@H]1CC[C@H](Nc2ncc3c(N)cc(=O)n([C@@H]4CC[C@@H](O)C4)c3n2)CC1` [Compound I-18, N-{4-[5-Amino-8-((1R,3R)-3-hydroxy-cyclopentyl)-7-oxo-7,8-dihydro-pyrido[2,3-d]pyrimidin-2-ylamino]-cyclohexyl}-acetamide], the melting point was 210 to 211.5 °C.

Molecule `COC(=O)N[C@H]1CC[C@H](Nc2ncc3c(N)cc(=O)n(C4CCCCC4)c3n2)CC1` [Compound I-19, [4-(5-Amino-8-cyclohexyl-7-oxo-7,8-dihydro-pyrido[2,3-d]pyrimidin-2-ylamino)-cyclohexyl]-carbamic acid methyl ester] returned a melting point of 193.9 to 198 °C.

In the case of `Cc1c(N)c2cnc(N[C@H]3CC[C@H](C(C)(C)O)CC3)nc2n(C2CCC2)c1=O` [Compound I-20, 5-Amino-8-cyclobutyl-2-[4-(1-hydroxy-1-methyl-ethyl)-cyclohexylamino]-6-methyl-8H-pyrido[2,3-d]pyrimidin-7-one], the melting point lay within 223 to 224.8 °C.

For the molecule `CCn1c(=O)cc(N)c2cnc(NC3CCCCC3)nc21` [Compound I-21, 5-Amino-2-cyclohexylamino-8-ethyl-8H-pyrido[2,3-d]pyrimidin-7-one], the melting point lay within 147.7 to 150.1 °C.

In turn, `Nc1cc(=O)n(C2CC2)c2nc(N[C@H]3CC[C@H](O)CC3)ncc12` [Compound I-22, 5-Amino-8-cyclopropyl-2-(4-hydroxy-cyclohexylamino)-8H-pyrido[2,3-d]pyrimidin-7-one] registered a melting point of 256.3 to 258.7 °C.

On to `CCc1c(N)c2cnc(N[C@H]3CC[C@H](NC(C)=O)CC3)nc2n(C2CCCC2)c1=O` [Compound I-23, N-[4-(5-Amino-8-cyclopentyl-6-ethyl-7-oxo-7,8-dihydro-pyrido[2,3-d]pyrimidin-2-ylamino)-cyclohexyl]-acetamide], for which the melting point is greater than 300 °C.

`Cc1c(N)c2cnc(N[C@H]3CC[C@H](N(C)S(C)(=O)=O)CC3)nc2n(C2CCC2)c1=O` [Compound I-24, N-[4-(5-Amino-8-cyclobutyl-6-methyl-7-oxo-7,8-dihydro-pyrido[2,3-d]pyrimidin-2-ylamino)-cyclohexyl]-N-methyl-methanesulfonamide] returned a melting point of 260 to 261 °C.

Molecule `CC(C)c1c(N)c2cnc(N[C@H]3CC[C@H](C(=O)N4CCC(O)CC4)CC3)nc2n(C2CCC2)c1=O` [Compound I-25, 5-Amino-8-cyclobutyl-2-[4-(4-hydroxy-piperidine-1-carbonyl)-cyclohexylamino]-6-isopropyl-8H-pyrido[2,3-d]pyrimidin-7-one] had a melting point of 170 to 171 °C.

Molecule `Nc1cc(=O)n(C2CC2)c2nc(NC3CCCCC3)ncc12` [Compound I-26, 5-Amino-2-cyclohexylamino-8-cyclopropyl-8H-pyrido[2,3-d]pyrimidin-7-one] came in with a melting point of 117 to 118 °C.

In general, melting point refers to the temperature of the solid-liquid transition.
